Measurements from patent publication US6242445A, “Benzimidazole derivative” (Kureha Chemical Industry Co., Ltd., priority 1998, dated 2001).

Key:
ICR female mice = assay: Acute toxicity (single oral administration); type: in vivo
Method: Acute toxicity was evaluated in this Example. As a compound to be examined, 2-ethoxy-1-[[4'-(2"-N,N-dimethylamino-ethoxycarbonyl)phenyl]methyl]-1H-benzimidazole-6-carboxylic acid morpholide (Compound No. 13) prepared in Example 6 was used.
Five-week-old ICR female mice (5 mice per group) were bredfor acclimation for a week. Then, Compound No. 13 was dissolved or suspended in 0.5% methylcellulose aqueous solution, and orally administered to the mice in a single dosage (500 mg/kg). […] Further, as to Compound No. 55, Compound No. 57, Compound No. 59, and Compound No. 65 prepared in Examples 26, 28, 31, and 23, respectively, acute toxicity was also evaluated.

[1] = tested on: kidney disease model rats; assay: Survival time of kidney diseased animals; type: in vivo, Sprague-Dawley female rats; conditions: for survival time / Average survival time: 20 mg/kg/day; for Average survival time: observation period eight weeks (upper limit), control 5.0; for effect on survival compared with reference substance: vs DuP753
Method: In this Example, an action to lower blood pressure was evaluated. That is, each of 2-ethoxy-1-[[4'- (2'-N,N-dimethylamino-ethoxycarbonyl) phenyl]methyl]-1H-benzimidazole-6-carboxylic acid morpholide (Compound No. 13) prepared in Example 6, 2-ethoxy-1-[[4'-(2"-morpholinoethoxycarbonyl)-phenyl]methyl]-1H-benzimidazole-6-carboxylic acid piperidinamide (Compound No. 57) prepared in Example 28, or the reference substance was forcibly orally administered to kidney disease model rats, and the action of lowering the blood pressure was observed. The kidney disease model rats were prepared by a ligature of branches of renal artery in accordance with a conventional method. Namely, the left hilum renalis of Sprague-Dawley female rats was exposed under anesthesia, and one of four secondary branches of the renal artery was left unligated, while the remaining three branches were ligated, respectively. After a week, the hilum renalis (artery, vein, and ureter) of the right kidney were further ligated to thereby prepare rats whose renal function was lowered to approximately 1/8 of the normal function. Each group consisted of eight rats. The drugs to be tested (20 mg/kg) were administered to each administering group, and only water was administered to a control group. Two days after the administration, the systolic blood pressure was measured by the tail cuff method using a blood pressure measuring apparatus (UR^5000; Ueda).
In this Example, an action to survival time of kidney diseased animals was evaluated. As compounds to be examined, 2-ethoxy-1-[[4'-(2"-N,N-dimethylamino-ethoxycarbonyl)-phenyl]methyl]-1H-benzimidazole-6-carboxylic acid morpholide (Compound No. 13) prepared in Example 6, and 2-ethoxy-1-[[4'-(2"-morpholinoethoxycarbonyl)phenyl]methyl]-1H-benzimidazole-6-carboxylic acid piperidinamide (Compound No. 57) prepared in Example 28 were used.
The kidney disease model rats were prepared as in Example 38. Fifteen groups (8 rats per group) were prepared in a manner such that there was no major difference between the groups in the serum creatinine value and the blood urea nitrogen value indicating renal function. The rats in each group were allowed to freely take up food and water. […] To the rats in the control group, only water was forcibly orally administered every day. If kidney diseases are aggravated, the rat will die of uremia. Thus, the survival time was observed as a comprehensive indication of the improvement of the effect on the kidney diseases. The observation period was eight weeks. Thus if all rats survived, the average survival time is eight weeks, and is an upper limit.

Structure (SMILES)	Number of deaths/number of survivals (ICR female mice; 500 mg/kg single oral, deaths observed for 6 days)	survival time [1]	Average survival time [1] [weeks]	effect on survival compared with reference substance [1]	Number of deaths/number of survivals (ICR female mice; mouse, in vivo)
CCOc1nc2ccc(C(=O)N3CCOCC3)cc2n1Cc1ccc(C(=O)OCCN(C)C)cc1 [Compound No. 13, 2-ethoxy-1-[[4'-(2"-N,N-dimethylaminoethoxycarbonyl)phenyl]methyl]-1H-benzimidazole-6-carboxylic acid morpholide]	0/5	clearly prolonged the survival time	7.5	comparable or superior to that of the reference substance	
CCOc1nc2ccc(C(=O)N3CCCCC3)cc2n1Cc1ccc(C(=O)OCCN2CCOCC2)cc1 [Compound No. 57, 2-ethoxy-1-[[4'-(2"-morpholinoethoxycarbonyl)phenyl]methyl]-1H-benzimidazole-6-carboxylic acid piperidinamide]		clearly prolonged the survival time	7.5	comparable or superior to that of the reference substance	0/5
